In US20060252807A1, “Novel ortho-terphenyl inhibitors of p38 kinase and methods of treating inflammatory disorders” (Kalypsys, Inc., priority 2005, published 2006):

What follows are molecules tested against T1, active p38 alpha enzyme (Upstate Biotechnology) (Homo sapiens, UniProt Q16539) (assay: p38α biochemical assay (ATP turnover, luminescent detection, Cambrex PKlight)). Settings: p38α kinase; Table 1 Biological Activity.
T1 construct: purchased Upstate Biotechnology
Outline: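 Luminescent ATP-depletion readout measures total ATP turnover by p38α phosphorylating whole MapkapK2 protein. ATP 1.4 uM final; 30C, 2 h. Compounds delivered from DMSO.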

T1 sequence (Q16539 whole entry): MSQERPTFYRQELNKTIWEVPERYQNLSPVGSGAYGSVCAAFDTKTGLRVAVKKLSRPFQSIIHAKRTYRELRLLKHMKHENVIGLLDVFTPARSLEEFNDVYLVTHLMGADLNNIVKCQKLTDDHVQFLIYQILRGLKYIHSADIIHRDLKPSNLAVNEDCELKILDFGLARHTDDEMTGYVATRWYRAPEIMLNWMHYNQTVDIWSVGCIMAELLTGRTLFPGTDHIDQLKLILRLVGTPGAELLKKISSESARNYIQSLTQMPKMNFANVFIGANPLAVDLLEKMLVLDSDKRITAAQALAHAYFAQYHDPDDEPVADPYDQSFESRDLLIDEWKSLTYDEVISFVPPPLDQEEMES

SMILES	IC50
CC(C)NC(=O)c1csc(-c2oc(CN(CCN(C)C)Cc3ccccc3)nc2-c2ccc(F)cc2)n1 [Example 1252]	> 1000 nM
CC(C)NC(=O)c1csc(-c2oc(CN3CCN(CC4CCCCC4)CC3)nc2-c2ccc(F)cc2)n1 [Example 1255]	> 1000 nM
CC(C)NC(=O)c1csc(-c2oc(CN(C)C[C@H](O)c3ccc(O)c(O)c3)nc2-c2ccc(F)cc2)n1 [Example 1256]	> 1000 nM
CCOC(=O)CC1C(=O)NCCN1Cc1nc(-c2ccc(F)cc2)c(-c2nc(C(=O)NC(C)C)cs2)o1 (stereo not drawn) [Example 1257]	> 1000 nM
CC(C)NC(=O)c1csc(-c2oc(CN3CCC(NC(=O)OC(C)(C)C)C3)nc2-c2ccc(F)cc2)n1 (stereo not drawn) [Example 1259]	> 1000 nM
COc1ccc(CCN(C)Cc2nc(-c3ccc(F)cc3)c(-c3nc(C(=O)NC(C)C)cs3)o2)cc1OC [Example 1272]	> 1000 nM
CC(C)NC(=O)c1csc(-c2oc(CN(Cc3cccnc3)Cc3cccnc3)nc2-c2ccc(F)cc2)n1 [Example 1277]	> 1000 nM
CC(C)NC(=O)c1csc(-c2oc(CN3CCN(CCN4CCOCC4)CC3)nc2-c2ccc(F)cc2)n1 [Example 1278]	> 1000 nM
CC(C)NC(=O)c1csc(-c2oc(CN3CCC(N(C)C(=O)OC(C)(C)C)C3)nc2-c2ccc(F)cc2)n1 (stereo not drawn) [Example 1279]	> 1000 nM
CCN(CC)CCN(Cc1ccccc1)Cc1nc(-c2ccc(F)cc2)c(-c2nc(C(=O)NC(C)C)cs2)o1 [Example 1281]	> 1000 nM
CC(C)NC(=O)c1csc(-c2oc(CN(C)Cc3cccc4ccccc34)nc2-c2ccc(F)cc2)n1 [Example 1283]	> 1000 nM
COc1cc(CN(C)Cc2nc(-c3ccc(F)cc3)c(-c3nc(C(=O)NC(C)C)cs3)o2)cc(OC)c1OC [Example 1285]	> 1000 nM
CC(C)NC(=O)c1csc(-c2oc(CN(CCc3ccccc3)Cc3ccccc3)nc2-c2ccc(F)cc2)n1 [Example 1286]	> 1000 nM
CC(C)NC(=O)c1csc(-c2oc(CN(C)C(Cc3ccccc3)c3ccccc3)nc2-c2ccc(F)cc2)n1 (stereo not drawn) [Example 1288]	> 1000 nM
C#CCN(Cc1nc(-c2ccc(F)cc2)c(-c2nc(C(=O)NC(C)C)cs2)o1)Cc1ccc(Cl)cc1Cl [Example 1290]	> 1000 nM
CCN(Cc1nc(-c2ccc(F)cc2)c(-c2nc(C(=O)NC(C)C)cs2)o1)C(Cc1ccccc1)c1ccco1 (stereo not drawn) [Example 1291]	> 1000 nM
CC(C)NC(=O)c1csc(-c2oc(CN3CCN(C(=O)OC(C)(C)C)C[C@H]3CO)nc2-c2ccc(F)cc2)n1 [Example 1292]	> 1000 nM
COc1cc2c(cc1OC)CN(Cc1nc(-c3ccc(F)cc3)c(-c3nc(C(=O)NC(C)C)cs3)o1)CC2 [Example 1295]	> 1000 nM
CC(C)NC(=O)c1csc(-c2oc(CN3CCCC(c4ccc(C(F)(F)F)cc4)C3)nc2-c2ccc(F)cc2)n1 (stereo not drawn) [Example 1303]	> 1000 nM

SMILES	IC50
CC(C)NC(=O)c1csc(-c2oc(CNC3CCCc4ccccc43)nc2-c2ccc(F)cc2)n1 (stereo not drawn) [Example 1304]	> 1000 nM
CC(C)NC(=O)c1csc(-c2oc(CNc3ccccc3)nc2-c2ccc(F)cc2)n1 [Example 1307]	> 1000 nM
Cc1cccc(NCc2nc(-c3ccc(F)cc3)c(-c3nc(C(=O)NC(C)C)cs3)o2)c1 [Example 1308]	> 1000 nM
Cc1ccc(NCc2nc(-c3ccc(F)cc3)c(-c3nc(C(=O)NC(C)C)cs3)o2)cc1 [Example 1309]	> 1000 nM
Cc1ccccc1NCc1nc(-c2ccc(F)cc2)c(-c2nc(C(=O)NC(C)C)cs2)o1 [Example 1310]	> 1000 nM
Cc1ccc(NCc2nc(-c3ccc(F)cc3)c(-c3nc(C(=O)NC(C)C)cs3)o2)nc1 [Example 1311]	> 1000 nM
Cc1cccc(NCc2nc(-c3ccc(F)cc3)c(-c3nc(C(=O)NC(C)C)cs3)o2)n1 [Example 1312]	> 1000 nM
Cc1ccnc(NCc2nc(-c3ccc(F)cc3)c(-c3nc(C(=O)NC(C)C)cs3)o2)c1 [Example 1313]	> 1000 nM
Cc1cccnc1NCc1nc(-c2ccc(F)cc2)c(-c2nc(C(=O)NC(C)C)cs2)o1 [Example 1314]	> 1000 nM
CC(C)NC(=O)c1csc(-c2oc(CNc3ccc(F)cc3)nc2-c2ccc(F)cc2)n1 [Example 1316]	> 1000 nM
Cc1ccc(C)c(NCc2nc(-c3ccc(F)cc3)c(-c3nc(C(=O)NC(C)C)cs3)o2)c1 [Example 1317]	> 1000 nM
Cc1ccc(NCc2nc(-c3ccc(F)cc3)c(-c3nc(C(=O)NC(C)C)cs3)o2)cc1C [Example 1318]	> 1000 nM
CCc1ccccc1NCc1nc(-c2ccc(F)cc2)c(-c2nc(C(=O)NC(C)C)cs2)o1 [Example 1319]	> 1000 nM
Cc1cccc(NCc2nc(-c3ccc(F)cc3)c(-c3nc(C(=O)NC(C)C)cs3)o2)c1C [Example 1321]	> 1000 nM
Cc1ccc(NCc2nc(-c3ccc(F)cc3)c(-c3nc(C(=O)NC(C)C)cs3)o2)c(C)c1 [Example 1322]	> 1000 nM
Cc1cc(C)cc(NCc2nc(-c3ccc(F)cc3)c(-c3nc(C(=O)NC(C)C)cs3)o2)c1 [Example 1323]	> 1000 nM
COc1cccc(NCc2nc(-c3ccc(F)cc3)c(-c3nc(C(=O)NC(C)C)cs3)o2)c1 [Example 1324]	> 1000 nM
COc1ccc(NCc2nc(-c3ccc(F)cc3)c(-c3nc(C(=O)NC(C)C)cs3)o2)cc1 [Example 1325]	> 1000 nM

More lines, now with the values ahead:

IC50	SMILES
> 1000 nM	CC(C)NC(=O)c1csc(-c2oc(CN3CCCN(Cc4ccccc4)CC3)nc2-c2ccc(F)cc2)n1 [Example 1250]
> 1000 nM	CC(C)NC(=O)c1csc(-c2oc(CN3CCN(c4ccc(O)cc4)CC3)nc2-c2ccc(F)cc2)n1 [Example 1251]
> 1000 nM	CC(C)NC(=O)c1csc(-c2oc(CN3CCN(c4ccccc4F)CC3)nc2-c2ccc(F)cc2)n1 [Example 1253]
> 1000 nM	CC(C)NC(=O)c1csc(-c2oc(CN3CCN(c4ccc(F)cc4)CC3)nc2-c2ccc(F)cc2)n1 [Example 1254]
> 1000 nM	CC(C)NC(=O)c1csc(-c2oc(CN3CCN(C(=O)OC(C)(C)C)CC3)nc2-c2ccc(F)cc2)n1 [Example 1258]
> 1000 nM	CC(C)NC(=O)c1csc(-c2oc(CN3CCN(c4ccccc4C#N)CC3)nc2-c2ccc(F)cc2)n1 [Example 1260]
> 1000 nM	CC(C)NC(=O)c1csc(-c2oc(CN3CCN(c4ccc(C#N)cn4)CC3)nc2-c2ccc(F)cc2)n1 [Example 1261]
> 1000 nM	Cc1cccc(N2CCN(Cc3nc(-c4ccc(F)cc4)c(-c4nc(C(=O)NC(C)C)cs4)o3)CC2)c1C [Example 1262]
> 1000 nM	Cc1cccc(N2CCN(Cc3nc(-c4ccc(F)cc4)c(-c4nc(C(=O)NC(C)C)cs4)o3)CC2C)c1 (stereo not drawn) [Example 1264]
> 1000 nM	CC(C)NC(=O)c1csc(-c2oc(CN3CCN(CCc4ccccc4)CC3)nc2-c2ccc(F)cc2)n1 [Example 1265]
> 1000 nM	Cc1ccc(N2CCN(Cc3nc(-c4ccc(F)cc4)c(-c4nc(C(=O)NC(C)C)cs4)o3)CC2)cc1C [Example 1266]
> 1000 nM	Cc1ccc(N2CCN(Cc3nc(-c4ccc(F)cc4)c(-c4nc(C(=O)NC(C)C)cs4)o3)CC2)c(C)c1 [Example 1267]
> 1000 nM	Cc1ccc(C)c(N2CCN(Cc3nc(-c4ccc(F)cc4)c(-c4nc(C(=O)NC(C)C)cs4)o3)CC2)c1 [Example 1268]
> 1000 nM	COc1ccc(N2CCN(Cc3nc(-c4ccc(F)cc4)c(-c4nc(C(=O)NC(C)C)cs4)o3)CC2)cc1 [Example 1269]
> 1000 nM	COc1ccccc1N1CCN(Cc2nc(-c3ccc(F)cc3)c(-c3nc(C(=O)NC(C)C)cs3)o2)CC1 [Example 1270]
> 1000 nM	COc1cccc(N2CCN(Cc3nc(-c4ccc(F)cc4)c(-c4nc(C(=O)NC(C)C)cs4)o3)CC2)c1 [Example 1271]

IC50	SMILES
> 1000 nM	CC(C)NC(=O)c1csc(-c2oc(CN3CCN(c4cccc(Cl)c4)CC3)nc2-c2ccc(F)cc2)n1 [Example 1273]
> 1000 nM	CC(C)NC(=O)c1csc(-c2oc(CN3CCN(c4ccc(Cl)cc4)CC3)nc2-c2ccc(F)cc2)n1 [Example 1274]
> 1000 nM	CC(C)NC(=O)c1csc(-c2oc(CN3CCN(c4ccc(F)cc4F)CC3)nc2-c2ccc(F)cc2)n1 [Example 1276]
> 1000 nM	CC(=O)c1ccc(N2CCN(Cc3nc(-c4ccc(F)cc4)c(-c4nc(C(=O)NC(C)C)cs4)o3)CC2)cc1 [Example 1280]
> 1000 nM	CC(C)NC(=O)c1csc(-c2oc(CN3CCN(c4ccc([N+](=O)[O-])cc4)CC3)nc2-c2ccc(F)cc2)n1 [Example 1282]
> 1000 nM	Cc1ccc(Cl)cc1N1CCN(Cc2nc(-c3ccc(F)cc3)c(-c3nc(C(=O)NC(C)C)cs3)o2)CC1 [Example 1284]
> 1000 nM	CC(C)NC(=O)c1csc(-c2oc(CN3CCC(O)(c4ccc(Cl)cc4)CC3)nc2-c2ccc(F)cc2)n1 [Example 1289]
> 1000 nM	CC(C)NC(=O)c1csc(-c2oc(CN3CCN(c4ccc(C(C)(C)C)cc4)CC3)nc2-c2ccc(F)cc2)n1 [Example 1293]
> 1000 nM	CC(C)NC(=O)c1csc(-c2oc(CN3CCN(Cc4ccc5c(c4)OCO5)CC3)nc2-c2ccc(F)cc2)n1 [Example 1294]
> 1000 nM	CC(C)NC(=O)c1csc(-c2oc(CN3CCN(c4ccc(C(F)(F)F)cc4)CC3)nc2-c2ccc(F)cc2)n1 [Example 1296]
> 1000 nM	CC(C)NC(=O)c1csc(-c2oc(CN3CCN(c4cccc(C(F)(F)F)c4)CC3)nc2-c2ccc(F)cc2)n1 [Example 1297]
> 1000 nM	CC(C)NC(=O)c1csc(-c2oc(CN3CCN(c4ccc(Cl)c(Cl)c4)CC3)nc2-c2ccc(F)cc2)n1 [Example 1298]
> 1000 nM	CC(C)NC(=O)c1csc(-c2oc(CN3CCN(c4ccc(C(F)(F)F)cn4)CC3)nc2-c2ccc(F)cc2)n1 [Example 1300]
> 1000 nM	CC(C)NC(=O)c1csc(-c2oc(CN3CCN(c4ccccc4Cl)CC3)nc2-c2ccc(F)cc2)n1 [Example 1301]
> 1000 nM	COc1ccc(N2CCN(Cc3nc(-c4ccc(F)cc4)c(-c4nc(C(=O)NC(C)C)cs4)o3)CC2)cc1OC [Example 1302]
> 1000 nM	CC(C)NC(=O)c1csc(-c2oc(CNc3ccccc3F)nc2-c2ccc(F)cc2)n1 [Example 1315]
